Literature values as cited in patent US20240173254A1, “TASIPIMIDINE FORMULATIONS AND USE THEREOF” (ORION CORPORATION, priority 2021, published 2024).

Legend:
[1] = in vivo

**Q.** Which “elimination half-life (t1/2) compared with clonidine” value [1] does the source give for `COc1cccc2c1CCOC2C1=NCCN1` (centres unmarked) [tasipimidine, 2-(5-methoxyisochroman-1-yl)-4,5-dihydro-1H-imidazole] here?
**A.** Its value is “shorter elimination half-life (t1/2) than clonidine”.

**Q.** And the “relieving situational anxiety and fear triggered by noise or owner departure” value (dogs)?
**A.** The value was “effective”.
